Legend:
MCF7-MnSOD^K68Q cells = experiment: Clonogenic cell survival in MCF7-MnSOD^K68Q cells; assay type: cell-based, human
Experimental: FIGS. 25a-25b show clonogenic cell survival studies in MCF7-MnSOD^K68Q cells exposed to either: Fulv at 100 nM (in FIG. 25a); or Palb at 0.5 µM (in FIG. 25b) using standard methods. […] Error bars are ± 1 SEM. Experiments in triplicate. *** p < 0.001.
(§1) Clonogenic cell survival assay. For the clonogenic survival analysis, exponentially growing cells were replated using appropriate dilutions, and clonogenic survival was evaluated after 14 days in regular growth medium. Cells were stained with crystal violet, and colonies of >50 cells were counted and utilized to calculate clonogenic survival^46.

[1] = system: T47D cells constitutively expressing MnSOD^K68Q; experiment: Clonogenic cell survival in T47D-MnSOD^K68Q cells with hydroxy-Tam; assay type: cell-based, human; conditions: 1 µM hydroxy-Tam; compared to cells expressing MnSOD^K68WT or MnSOD^K68R
[2] = system: MCF7 cells expressing shSIRT3; experiment: Clonogenic cell survival in MCF7-shSIRT3 cells with hydroxy-Tam; assay type: cell-based, human; conditions: 1 µM hydroxy-Tam for 120 h
Experimental: All experiments were done in triplicate. Error bars represent ± 1 SEM. **p < 0.01, and ***p < 0.001. Three-armed groups were analyzed via a one-way ANOVA statistical analysis with Tukey’s post-analysis, and two-armed groups were analyzed by a t-test.
as §1

[3] = system: T47D cells expressing shSIRT3; experiment: Clonogenic cell survival in T47D-shSIRT3 cells with hydroxy-Tam; assay type: cell-based, human; conditions: 1 µM 4-hydroxy-Tam for 24 h
From the text: FIGS. 14a-14g are images and plots that illustrate that loss of SIRT3-induced MnSOD—K68 deacetylation leads to hydroxy-Tam resistance, and that such resistance is associated with increased lysine acetylation in human breast cancer cells, while mimicking deacetylation of MnSOD—K68 or pharmacologically mimicking the activity of deacetylated lysine 68 MnSOD with a manganese pentaazamacrocyclic dismutase mimetic has opposing effects. With respect to FIG. 14a, T47D-MnSOD^WT, T47D-MnSOD^K68R, and T47D-MnSOD^K68D permanent cell lines were selected for hydroxy-Tam resistance in 1 µM for 3 months, and clonogenic cell survival experiments were completed. […] With respect to FIG. 14c, T47D and T47D-HTR cells, with and without exposure to 1 µM 4-hydroxy-Tam for 24 h (HT), were measured for hydroxy-Tam response by clonogenic survival experiments. […] The cell lysates were analyzed by immunoblotting with anti-MnSOD-K122-Ac (validated as a SIRT3 deacetylation target in Tao et al., 2010, Cancer Cell), anti-MnSOD, anti-OSCP-K139-Ac (validated as a SIRT3 deacetylation target in Tao et al., 2010, Cancer Cell), anti-OSCP, anti-IDH2K413-Ac (validated as a SIRT3 deacetylation target in Someya et al., 2010, Cancer Cell), anti-IDH2, and anti-actin. […]
Clonogenic cell survival assay. […] Cells were stained with crystal violet, and colonies of >50 cells were counted and utilized to calculate clonogenic survival^46.

[4] = system: MCF7 cells overexpressing MnSOD^K68Q; experiment: MTT cell viability, MCF7 cells overexpressing MnSOD^K68Q; assay type: cell-based, human; conditions: 48 hours
Experimental: (§2) In FIGS. 28a-28b, cell lysates of 250 nM, 500 nM, 1 µM cisplatin-resistant and 500pM, 1 nM and 2 nM doxorubicin-resistant MCF7 cells (cultured in drug-containing media for 3 months) were collected and immunoblotted for MnSOD—K68—Ac, MnSOD, actin and tubulin. In FIGS. 28d-28e, cell lysates of 2.5 µM, 5 µM, 10 µM cisplatin-resistant and 5 nM, 10 nM and 20 nM doxorubicin-resistant T47D cells (cultured in drug-containing media for 3 months) were collected and immunoblotted for MnSOD—K68—Ac, MnSOD, actin and tubulin. In FIGS. 28c and 28f, 10,000 MCF7 or T47D cells overexpressed with empty vector, MnSOD^WT, MnSOD^K68R or MnSOD^K68Q were plated in 96 well plate and treated with cisplatin (1 µM for MCF7 and 10 µM for T47D) or doxorubicin (2 nM for MCF7 and 20 nM for T47D) the next day. After 48 hours, MTT assay is conducted to determine the cell viability after chemotherapy drug treatment.
(§3) Cell proliferation was measured using MTT proliferation assay kit (ab211091). 10,000 exponentially growing cells were plated in regular growth medium per well into 96-well plates in triplicate. Cells were treated with specified drugs after overnight and incubated for 48 hours. […] The absorbance was read at OD=590 nm and used to evaluate cell proliferation.

[5] = system: T47D cells overexpressing MnSOD^K68Q; experiment: MTT cell viability, T47D cells overexpressing MnSOD^K68Q; assay type: cell-based, human; conditions: 48 hours
Experimental: as §2, §3

LNCaP-MnSOD^K68Q cells = experiment: Clonogenic cell survival in LNCaP-MnSOD^K68Q cells; assay type: cell-based; conditions: 10 µM of ENZ for 72 hr
Experimental: In FIG. 20a, clonogenic cell survival experiments were done in LNCaP-ENZR cells infected with lenti-MnSOD^K68R or lenti-MnSOD^K68Q, in the presence of ENZ (10 µM). In FIG. 20b, clonogenic survival assays were done in LNCaP cells infected with lenti-MnSOD^WT, lenti-MnSOD^K68R, and lenti-MnSOD^K68Q, and selected with neomycin, and placed in 10 µM of ENZ for 72 hr. Error bars ± 1 SEM. Experiments were done in triplicate. **p < 0.01.
FIGS. 21a-21b are a chart and graph showing that pharmacologically mimicking the activity of deacetylated lysine 68 MnSOD with a manganese pentaazamacrocyclic dismutase mimetic both inhibited the growth of LNCaP-ENZR tumors and reversed the enzalutamide resistance in LNCaP-ENZR / LNCaP—MnSOD^K68Q cells and tumors. In FIG. 21a, clonogenic cell survival experiments were performed in LNCaP-ENZR (left two bars) and LNCaP—MnSOD^K68Q (right two bars) treated with ENZ, with or without GC4419 (20 µM) for 5 days. […] Tumor volumes were measured three times a week for 46 days. For each group n=10. Error bars ± 1 SEM. All experiments done in triplicate. **p < 0.01.

colon of rats = conditions: experimental model of colitis; cited from earlier work
[6] = system: hamster model of acute, radiation-induced oral mucositis; conditions: cited from earlier work
adult mice = conditions: lethal total body irradiation of adult mice; cited from earlier work
[7] = system: rat model of inflammation; conditions: cited from earlier work
[8] = system: rat model of collagen-induced arthritis; conditions: cited from earlier work

4-hydroxytamoxifen [hydroxy-Tam]
cytotoxicity of hydroxy-Tam (clonogenic survival) (MCF7-MnSOD^K68Q cells; 1 µM hydroxy-Tam for 5 days, compared to cells expressing MnSOD^K68WT or MnSOD^K68R): significant resistance to the cytotoxicity of hydroxy-Tam
cytotoxicity of hydroxy-Tam (clonogenic survival) [1]: significant resistance to the cytotoxicity of hydroxy-Tam
hydroxy-Tam cytotoxicity (clonogenic survival) [2]: resistance to hydroxy-Tam cytotoxicity
hydroxy-Tam cytotoxicity (clonogenic survival) [3]: resistance to hydroxy-Tam cytotoxicity

[NH2][Pt]([NH2])([Cl])[Cl] [CDDP, cisplatin]
cell viability after drug treatment (MTT) ([4]; CDDP 1 µM): higher resistance
cell viability after drug treatment (MTT) ([5]; CDDP 10 µM): higher resistance

COc1cccc2c1C(=O)c1c(O)c3c(c(O)c1C2=O)C[C@@](O)(C(=O)CO)C[C@@H]3O[C@H]1C[C@H](N)[C@H](O)[C@H](C)O1 [DXR, doxorubicin]
cell viability after drug treatment (MTT) ([4]; DXR 2 nM): higher resistance
cell viability after drug treatment (MTT) ([5]; DXR 20 nM): higher resistance

CNC(=O)c1ccc(N2C(=S)N(c3ccc(C#N)c(C(F)(F)F)c3)C(=O)C2(C)C)cc1F [ENZ, enzalutamide, reference compound]
response to ENZ (clonogenic survival) (LNCaP-MnSOD^K68Q cells): ENZR phenotype

C[C@]12CC[C@@H]3c4ccc(O)cc4C[C@@H](CCCCCCCCC[S+]([O-])CCCC(F)(F)C(F)(F)F)[C@H]3[C@@H]1CC[C@@H]2O (stereo partly drawn) [Fulv, fulvestrant]
clonogenic tumor cell survival (MCF7-MnSOD^K68Q cells; Fulv at 100 nM, compared to MCF7 cells expressing MnSOD^WT): exhibited resistance

[Cl-].[Cl-].[Mn+2].c1cc2nc(c1)CN[C@@H]1CCCC[C@H]1NCCN[C@@H]1CCCC[C@H]1NC2 [GC4403]
injury to the colon (colon of rats): very significantly reduce the injury to the colon
radiation damage [6]: attenuate the radiation damage
radiation damage (adult mice): attenuate the radiation damage
inflammation [7]: inhibit inflammation
joint disease [8]: prevent joint disease

Source: patent US20230158042A1, “COMBINATION CANCER THERAPY WITH PENTAAZA MACROCYCLIC RING COMPLEX AND HORMONE THERAPY AGENT” (Galera Labs, LLC, priority 2020, published 2023)
